Assays:
Assay in all cases: cells
Assay type in all cases: functional, cell-based, Homo sapiens
[1] = system: D-247MG; settings: Homo sapiens, D-247MG
Description: SANGER: Inhibition of human D-247MG cell growth in a cell viability assay.

[2] = system: DJM-1; settings: Homo sapiens, DJM-1;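 note: growth inhibition of human DJM-1 cells, read out by a cell viability assay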
Description: SANGER: Inhibition of human DJM-1 cell growth in a cell viability assay.

[3] = system: DMS-79; settings: Homo sapiens, DMS-79;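 note: growth inhibition measured with a cell viability assay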
Description: SANGER: Inhibition of human DMS-79 cell growth in a cell viability assay.

[4] = system: DU-4475; settings: Homo sapiens, DU-4475
Description: SANGER: Inhibition of human DU-4475 cell growth in a cell viability assay.

[5] = system: EW-1; settings: Homo sapiens, EW-1;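 note: growth inhibition of the human EW-1 cell line, read out by a cell viability assay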
Description: SANGER: Inhibition of human EW-1 cell growth in a cell viability assay.

[6] = system: EW-18; settings: Homo sapiens, EW-18;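 note: growth inhibition of EW-18 cells, read out by a cell viability assay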
Description: SANGER: Inhibition of human EW-18 cell growth in a cell viability assay.

[7] = system: GAK; settings: Homo sapiens, GAK;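 note: cell growth inhibition read out by a cell viability assay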
Description: SANGER: Inhibition of human GAK cell growth in a cell viability assay.

[8] = system: GB-1; settings: Homo sapiens, GB-1;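 note: growth of GB-1 cells judged by a viability assay, IC50 marks the concentration inhibiting growth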
Description: SANGER: Inhibition of human GB-1 cell growth in a cell viability assay.

[9] = system: HDLM-2; settings: Homo sapiens, HDLM-2;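 note: cell viability assay measuring suppression of HDLM-2 proliferation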
Description: SANGER: Inhibition of human HDLM-2 cell growth in a cell viability assay.

[10] = system: IST-MEL1; settings: Homo sapiens, IST-MEL1;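 note: growth inhibition of the cell line, read out with a cell viability assay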
Description: SANGER: Inhibition of human IST-MEL1 cell growth in a cell viability assay.

[11] = system: K562; settings: Homo sapiens, K562
Description: SANGER: Inhibition of human K-562 cell growth in a cell viability assay.

[12] = system: KALS-1; settings: Homo sapiens, KALS-1;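 note: growth inhibition of KALS-1 cells, determined with a cell viability assay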
Description: SANGER: Inhibition of human KALS-1 cell growth in a cell viability assay.

[13] = system: KINGS-1; settings: Homo sapiens, KINGS-1;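 note: cell viability assay measuring suppression of KINGS-1 cell growth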
Description: SANGER: Inhibition of human KINGS-1 cell growth in a cell viability assay.

[14] = system: L-363; settings: Homo sapiens, L-363
Description: SANGER: Inhibition of human L-363 cell growth in a cell viability assay.

[15] = system: LOX IMVI; settings: Homo sapiens, LOX IMVI
Description: SANGER: Inhibition of human LOXIMVI cell growth in a cell viability assay.

[16] = system: LS-123; settings: Homo sapiens, LS-123
Description: SANGER: Inhibition of human LS-123 cell growth in a cell viability assay.

[17] = system: MOLT-4; settings: Homo sapiens, MOLT-4;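 note: growth inhibition of MOLT-4 cells, determined with a cell viability readout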
Description: SANGER: Inhibition of human MOLT-4 cell growth in a cell viability assay.

[18] = system: MS-1; settings: Homo sapiens, MS-1;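 note: growth inhibition of MS-1 cells, read out by cell viability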
Description: SANGER: Inhibition of human MS-1 cell growth in a cell viability assay.

[19] = system: Mo; settings: Homo sapiens, Mo
Description: SANGER: Inhibition of human Mo-T cell growth in a cell viability assay.

[20] = system: NB10; settings: Homo sapiens, NB10;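 note: growth inhibition of NB10 cells, read out by a cell viability assay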
Description: SANGER: Inhibition of human NB10 cell growth in a cell viability assay.

[21] = system: NB17; settings: Homo sapiens, NB17;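 note: growth inhibition of NB17 cells, read out with a cell viability assay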
Description: SANGER: Inhibition of human NB17 cell growth in a cell viability assay.

[22] = system: NCI-H1304; settings: Homo sapiens, NCI-H1304;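 note: growth inhibition of the cancer cell line, measured in a cell viability assay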
Description: SANGER: Inhibition of human NCI-H1304 cell growth in a cell viability assay.

[23] = system: NCI-H1581; settings: Homo sapiens, NCI-H1581;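 note: cell growth inhibition read out by a viability assay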
Description: SANGER: Inhibition of human NCI-H1581 cell growth in a cell viability assay.

[24] = system: NCI-H1770; settings: Homo sapiens, NCI-H1770;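 note: growth inhibition of NCI-H1770 cells determined with a viability readout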
Description: SANGER: Inhibition of human NCI-H1770 cell growth in a cell viability assay.

[25] = system: NCI-H526; settings: Homo sapiens, NCI-H526;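 note: growth inhibition of the human NCI-H526 cell line, measured by a cell viability assay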
Description: SANGER: Inhibition of human NCI-H526 cell growth in a cell viability assay.

[26] = system: OCI-AML2; settings: Homo sapiens, OCI-AML2;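 note: growth inhibition of OCI-AML2 cells, read out with a cell viability assay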
Description: SANGER: Inhibition of human OCI-AML2 cell growth in a cell viability assay.

[27] = system: OCUB-M; settings: Homo sapiens, OCUB-M;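 note: growth inhibition of the cancer cell line, read out through a cell viability assay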
Description: SANGER: Inhibition of human OCUB-M cell growth in a cell viability assay.

[28] = system: OVCAR-4; settings: Homo sapiens, OVCAR-4;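 note: growth inhibition of human OVCAR-4 cells, measured with a cell viability assay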
Description: SANGER: Inhibition of human OVCAR-4 cell growth in a cell viability assay.

[29] = system: PSN1; settings: Homo sapiens, PSN1;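 note: suppression of growth of human PSN1 cells, read out by a cell viability assay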
Description: SANGER: Inhibition of human PSN1 cell growth in a cell viability assay.

[30] = system: RH-1; settings: Homo sapiens, RH-1;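 note: growth inhibition of human RH-1 cells, read out with a cell viability assay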
Description: SANGER: Inhibition of human RH-1 cell growth in a cell viability assay.

[31] = system: RPMI-8226; settings: Homo sapiens, RPMI-8226
Description: SANGER: Inhibition of human RPMI-8226 cell growth in a cell viability assay.

[32] = system: RPMI-8866; settings: Homo sapiens, RPMI-8866
Description: SANGER: Inhibition of human RPMI-8866 cell growth in a cell viability assay.

[33] = system: RXF 393; settings: Homo sapiens, RXF 393;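 note: growth inhibition of human RXF 393 cells, read out with a cell viability assay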
Description: SANGER: Inhibition of human RXF393 cell growth in a cell viability assay.

[34] = system: Ramos-2G6-4C10; settings: Homo sapiens, Ramos-2G6-4C10;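 note: growth inhibition of the cell line, measured by a cell viability read-out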
Description: SANGER: Inhibition of human Ramos-2G6-4C10 cell growth in a cell viability assay.

[35] = system: SCC-15; settings: Homo sapiens, SCC-15;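 note: growth inhibition of SCC-15 cells, read out with a cell viability assay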
Description: SANGER: Inhibition of human SCC-15 cell growth in a cell viability assay.

[36] = system: SCH; settings: Homo sapiens, SCH;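 note: growth inhibition of human SCH cells, read out in a cell viability assay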
Description: SANGER: Inhibition of human SCH cell growth in a cell viability assay.

[37] = system: SF-268; settings: Homo sapiens, SF-268;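 note: growth inhibition of SF-268 cells determined with a cell viability assay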
Description: SANGER: Inhibition of human SF268 cell growth in a cell viability assay.

[38] = system: SK-MEL-2; settings: Homo sapiens, SK-MEL-2;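 note: growth inhibition of human SK-MEL-2 cells measured with a cell viability assay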
Description: SANGER: Inhibition of human SK-MEL-2 cell growth in a cell viability assay.

[39] = system: SW 954; settings: Homo sapiens, SW 954;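 note: growth inhibition of SW954 human cancer cells, read out as cell viability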
Description: SANGER: Inhibition of human SW954 cell growth in a cell viability assay.

[40] = system: SW982; settings: Homo sapiens, SW982;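 note: growth inhibition of SW982 cells, read out with a cell viability assay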
Description: SANGER: Inhibition of human SW982 cell growth in a cell viability assay.

[41] = system: BV-173; settings: Homo sapiens, BV-173
Description: SANGER: Inhibition of human BV-173 cell growth in a cell viability assay.

[42] = system: TE-6; settings: Homo sapiens, TE-6;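 note: growth inhibition of TE-6 cells, read out with a cell viability assay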
Description: SANGER: Inhibition of human TE-6 cell growth in a cell viability assay.

[43] = system: TGBC24TKB; settings: Homo sapiens, TGBC24TKB;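 note: growth inhibition of human TGBC24TKB cells, read out with a cell viability assay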
Description: SANGER: Inhibition of human TGBC24TKB cell growth in a cell viability assay.

[44] = system: U-266; settings: Homo sapiens, U-266
Description: SANGER: Inhibition of human U-266 cell growth in a cell viability assay.

[45] = system: UACC-257; settings: Homo sapiens, UACC-257
Description: SANGER: Inhibition of human UACC-257 cell growth in a cell viability assay.

[46] = system: no-11; settings: Homo sapiens;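 note: growth inhibition of human NO-11 cells, read out with a cell viability assay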
Description: SANGER: Inhibition of human no-11 cell growth in a cell viability assay.

[47] = system: CGTH-W-1; settings: Homo sapiens, CGTH-W-1;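 note: growth inhibition of human CGTH-W-1 cells measured by cell viability assay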
Description: SANGER: Inhibition of human CGTH-W-1 cell growth in a cell viability assay.

COc1cc(-c2nn([C@H]3CC[C@H](N4CCN(C(C)=O)CC4)CC3)c3ncnc(N)c23)ccc1NC(=O)c1cc2ccccc2n1C
IC50 [1]: > 5.12 µM
IC50 [2]: > 5.12 µM
IC50 [3]: > 5.12 µM
IC50 [4]: > 5.12 µM
IC50 [5]: > 5.12 µM
IC50 [6]: > 5.12 µM
IC50 [7]: > 5.12 µM
IC50 [8]: 0.678 µM
IC50 [9]: > 5.12 µM
IC50 [10]: 0.838 µM
IC50 [11]: 0.392 µM
IC50 [12]: 2.53 µM
IC50 [13]: > 5.12 µM
IC50 [14]: > 5.12 µM
IC50 [15]: > 5.12 µM
IC50 [16]: > 5.12 µM
IC50 [17]: > 5.12 µM
IC50 [18]: > 5.12 µM
IC50 [19]: > 5.12 µM
IC50 [20]: > 5.12 µM
IC50 [21]: > 5.12 µM
IC50 [22]: > 5.12 µM
IC50 [23]: > 5.12 µM
IC50 [24]: > 5.12 µM
IC50 [25]: > 5.12 µM
IC50 [26]: 5.1 µM
IC50 [27]: 5.03 µM
IC50 [28]: 1.04 µM
IC50 [29]: 1.14 µM
IC50 [30]: > 5.12 µM
IC50 [31]: > 5.12 µM
IC50 [32]: > 5.12 µM
IC50 [33]: 1.12 µM
IC50 [34]: > 5.12 µM
IC50 [35]: > 5.12 µM
IC50 [36]: > 5.12 µM
IC50 [37]: 3.96 µM
IC50 [38]: > 5.12 µM
IC50 [39]: 0.696 µM
IC50 [40]: 0.387 µM
IC50 [41]: 0.345 µM
IC50 [42]: > 5.12 µM
IC50 [43]: 0.808 µM
IC50 [44]: > 5.12 µM
IC50 [45]: > 5.12 µM
IC50 [46]: > 5.12 µM
IC50 [47]: > 5.12 µM

OCCCNc1cc(-c2ccnc(Nc3cccc(Cl)c3)n2)ccn1
IC50 [1]: > 0.256 µM
IC50 [2]: > 0.256 µM
IC50 [3]: > 0.256 µM
IC50 [4]: 0.14 µM
IC50 [5]: 0.0458 µM
IC50 [6]: > 0.256 µM
IC50 [7]: > 0.256 µM
IC50 [8]: 0.038 µM
IC50 [9]: > 0.256 µM
IC50 [10]: 0.126 µM
IC50 [11]: > 0.256 µM
IC50 [12]: 0.0353 µM
IC50 [13]: 0.103 µM
IC50 [14]: 0.0926 µM
IC50 [15]: 0.202 µM
IC50 [16]: 0.093 µM
IC50 [17]: > 0.256 µM
IC50 [18]: 0.196 µM
IC50 [19]: > 0.256 µM
IC50 [20]: > 0.256 µM
IC50 [21]: 0.0887 µM
IC50 [22]: 0.104 µM
IC50 [23]: > 0.256 µM
IC50 [24]: > 0.256 µM
IC50 [25]: > 0.256 µM
IC50 [26]: 0.0626 µM
IC50 [27]: 0.0525 µM
IC50 [28]: > 0.256 µM
IC50 [29]: 0.0152 µM
IC50 [30]: > 0.256 µM
IC50 [31]: 0.129 µM
IC50 [32]: 0.0738 µM
IC50 [33]: 0.037 µM
IC50 [34]: 0.0593 µM
IC50 [35]: > 0.256 µM
IC50 [36]: > 0.256 µM
IC50 [37]: 0.0422 µM
IC50 [38]: > 0.256 µM
IC50 [39]: 0.17 µM
IC50 [40]: 0.0254 µM
IC50 [41]: 0.144 µM
IC50 [42]: > 0.256 µM
IC50 [43]: > 0.256 µM
IC50 [44]: > 0.256 µM
IC50 [45]: > 0.256 µM
IC50 [46]: 0.0293 µM
IC50 [47]: 0.0798 µM

Cc1ccc(-c2c(C(=O)CCl)n(CCCO)c3ncnc(N)c23)cc1
IC50 [1]: > 4 µM
IC50 [2]: > 4 µM
IC50 [3]: > 4 µM
IC50 [4]: > 4 µM
IC50 [5]: > 4 µM
IC50 [6]: > 4 µM
IC50 [7]: > 4 µM
IC50 [8]: > 4 µM
IC50 [9]: > 4 µM
IC50 [10]: > 4 µM
IC50 [11]: > 4 µM
IC50 [12]: > 4 µM
IC50 [13]: > 4 µM
IC50 [14]: > 4 µM
IC50 [15]: > 4 µM
IC50 [16]: > 4 µM
IC50 [17]: > 4 µM
IC50 [18]: > 4 µM
IC50 [19]: > 4 µM
IC50 [20]: > 4 µM
IC50 [21]: 1.12 µM
IC50 [22]: > 4 µM
IC50 [23]: > 4 µM
IC50 [24]: > 4 µM
IC50 [25]: > 4 µM
IC50 [26]: > 4 µM
IC50 [27]: > 4 µM
IC50 [28]: > 4 µM
IC50 [29]: 2.77 µM
IC50 [30]: > 4 µM
IC50 [31]: > 4 µM
IC50 [32]: > 4 µM
IC50 [33]: > 4 µM
IC50 [34]: > 4 µM
IC50 [35]: > 4 µM
IC50 [36]: > 4 µM
IC50 [37]: > 4 µM
IC50 [38]: > 4 µM
IC50 [39]: > 4 µM
IC50 [40]: 1.31 µM
IC50 [41]: > 4 µM
IC50 [42]: > 4 µM
IC50 [43]: > 4 µM
IC50 [44]: > 4 µM
IC50 [45]: > 4 µM
IC50 [46]: > 4 µM
IC50 [47]: > 4 µM

— ChEMBL document CHEMBL1201861, “Genomics of Drug Sensitity in Cancer screening data, Wellcome Trust Sanger Institute”
